Results as given in US8629242B2, “Methods of inhibiting calcineurin with ApoE analogs” (Cognosci, Inc., priority 2007, dated 2014).
Where a SMILES comes first, the peptide text is derived from it. [ ]: non-standard residue; d: D form. Aib = CC(C)(N)C(=O)O

What was measured:
enriched OPC cultures = test: Number of mature oligodendrocytes after differentiation of enriched OPC culture; type: cell-based, rat; details: 2 μM COG 133, 1 μM COG 112 or 1 μM COG 68 for four days, then six days differentiation without analog
Experimental: FIG. 11. ApoE analogs increase the number of mature oligodendrocytes in culture. ApoE analogs (COG 133, COG 112, and COG 68) were added to enriched OPC culture in proliferation media for four days. Cultures were then differentiated in the absence of the ApoE analogs. Cells were labeled with a GST-π antibody to detect mature oligodendrocytes.
Since COG 112 increased the proliferation of OPCs, we next examined whether the ApoE analogs could also increase the number of mature oligodendrocytes. Enriched OPC cultures were prepared as described for the previous experiment. 2 μM COG 133 (SEQ ID NO: 1), 1 μM COG 112 (SEQ ID NO: 5), or 1 μM COG 68 (Ac-[…]-NH2; SEQ ID NO: 7) were added to the enriched OPC cultures in proliferation media for four days. The media was then replaced with differentiation medium without the ApoE analogs for an additional six days. Cells were labeled with a GST-π antibody to detect mature oligodendrocytes.

[1] = tested on: oligodendrocyte precursor cells (OPC)/microglia mixed culture; test: LPS-induced OPC cell death in OPC/microglia mixed culture; type: cell-based, rat; details: 1 μM, LPS 10 ng/ml; for OPC cell death by LDH and MTT assays: 24 hours
Experimental: FIG. 9. COG 112 protects OPCs from LPS-induced cell death in OPC/microglia mixed culture. LPS (final conc. 10 ng/ml) was added to an OPC/microglia mixed culture with or without 1 μM COG 112. The prefix peptide of COG 112, antennapedia, was used as a negative control. Cells were fixed with 4% formaldehyde and stained with the OPC marker, NG2, and counterstained with hoescht. (A) LPS-treated cultures; (B) LPS+antennapedia (Antp)-treated cultures; (C) LPS+COG 112-treated cultures; (D) Bar graph summarizing the number of NG2+ cells per field in each condition. ** p<0.01.
FIG. 19. COG 345 promotes remyelination in lysolecithin-induced demyelination model of cerebellum slices. Significant demyelination was induced by lysolecithin (0.5 mg/ml) in cerebellar slices. COG 112 or COG 345 (1 μM) was added on day 3 when full demyelination was achieved. 4 days later, the slices were fixed and double stained with myelin marker MBP (green) and Purkinje cell marker calbindin (red). (A) Untreated-slices; (B) lysolecithin-treated slices; (C) COG 112-treated slices after lysolecithin exposure; (D) COG 345-treated slices after lysolecithin exposure. E-F. ApoE analogs protect OPCs from LPS-induced cell death in OPC/microglia mixed culture. OPCs and microglia derived from brain culture of P2 rat pups were plated in 96-well plates in 1:1 ratio. LPS (10 ng/ml) together with 1 μM of the indicated ApoE analogs was added to the cultures. After 24 hours, OPC cell death was quantified by LDH assay (E) and MTT assay (F). Statistical analysis was conducted by one-way ANOVA followed by Dunnett comparison vs. LPS group. * P<0.01, ** P<0.001, n=3.
A primary culture prepared from the brains of P2 Sprague-Dawley rat pups was grown for seven days. Microglia and OPCs were shaken off from the primary culture with an orbital shaker at 150˜200 rpm. The OPCs and microglia were plated in 24-well plates at a 1:1 ratio with 5×10^4 cells per well of each cell type. After 24 hours, LPS (final conc. 10 ng/ml) was added with or without 1 μM COG 112. The prefix peptide of COG 112, antennapedia, was used as a negative control. After incubation for 72 hours, the medium was removed and cells were fixed with 4% formaldehyde and stained with the OPC marker, NG2, and counterstained with hoescht. Five fields from each of the wells were randomly chosen to count the number of NG2-positive cells.
To further assess the ability of the novel ApoE analogs to promote remyelination, the effect of the analogs on OPC survival was assessed in an OPC/microglia mixed culture. OPC and microglia derived from primary culture of P2 rat pup brain were plated on 96-well plates in 1:1 ratio. […] After 24 hours, cell death of OPC was quantified by both LDH and MTT assays.

microglia cell line BV2 = test: LPS-induced NO and TNF-α release in BV2 microglia; type: cell-based, murine; details: LPS 10 ng/ml, 24 hours
Experimental: FIG. 16. […] Series concentrations of ApoE analogs were added to culture medium together with LPS (10 ng/ml). 24 hours later, culture medium was collected for measurement of NO by Griess assay or TNF-α by ELISA. […] ApoE analogs (10 μM) were added to the cell medium of human macrophage U937 5 minutes prior to PMA+LPS treatment. The release of superoxide in culture medium was measured by Luminol assay kit (Calbiochem).
The murine microglia cell line BV2 was used as the first screening platform to compare the potency of ApoE analogs in anti-inflammatory activity. In response to LPS, BV2 produces amounts of reactive radical NO and inflammatory cytokines, such as TNF-α and IL-6. We stimulated the cells with LPS (10 ng/ml) in the presence of several concentrations of each of the ApoE analogs. We measured NO in medium by Griess assay and TNF-α by ELISA 24 hours after LPS stimulation of the cells. The IC50 value was calculated for each of the ApoE analogs.

[2] = tested on: macrophage cell line U937; test: Superoxide release in PMA+LPS-treated U937 macrophages; type: cell-based, human; details: 10 μM, IFN-γ-differentiated cells
Experimental: FIG. 16. ApoE analogs suppress the release of nitric oxide (A) and TNF-α (B) in LPS-treated BV2 microglia cells. Series concentrations of ApoE analogs were added to culture medium together with LPS (10 ng/ml). 24 hours later, culture medium was collected for measurement of NO by Griess assay or TNF-α by ELISA. (C) ApoE analogs inhibit superoxide formation in PMA+LPS-treated human macrophage cell line U937. ApoE analogs (10 μM) were added to the cell medium of human macrophage U937 5 minutes prior to PMA+LPS treatment. The release of superoxide in culture medium was measured by Luminol assay kit (Calbiochem).
To determine the anti-oxidant effect of the different ApoE analogs, the human macrophage cell line U937 was differentiated with IFN-γ (40 U/ml) for 4 days and treated with phorbol-12-myristate-13-acetate (PMA) and LPS with or without ApoE analogs (10 μM). The release of superoxide in the medium was measured by Luminol Superoxide Assay kit (Calbiochem, CA).

Row | Compound | number of mature oligodendrocytes (GST-π) (enriched OPC cultures) | OPC cell death by LDH and MTT assays [1] | LPS-induced cell death of OPCs (number of NG2-positive cells) ([1]; 72 hours) | activity in suppression of microglia activation (NO by Griess assay, TNF-α by ELISA) (microglia cell line BV2) | superoxide release [2]
1 | CC(=O)N[C@@H](CC(C)C)C(=O)N[C@@H](CCCNC(=N)N)C(=O)N[C@H](C(=O)N[C@@H](CCCNC(=N)N)C(=O)N[C@@H](CC(C)C)C(=O)N[C@@H](C)C(=O)N[C@@H](CO)C(=O)N[C@@H](Cc1c[nH]cn1)C(=O)N[C@@H](CC(C)C)C(=O)N[C@@H](CCCNC(=N)N)C(=O)N[C@@H](CCCCN)C(=O)N[C@@H](CC(C)C)C(=O)N[C@@H](CCCNC(=N)N)C(=O)N[C@@H](CCCCN)C(=O)N[C@@H](CCCNC(=N)N)C(=O)N[C@@H](CC(C)C)C(=O)N[C@@H](CC(C)C)C(N)=O)C(C)C [COG 133] | significantly increased the number of mature oligodendrocytes | – | – | – | –
2 | Ac-RQIKIWFQNRRMKWKKCLRVRLASHLRKLRKRLL-NH2 [COG 112] | significantly increased the number of mature oligodendrocytes | most potent | significantly reduced LPS-induced cell death of OPCs | clearly superior to that of COG 133 | significantly inhibited superoxide release
3 | CC(=O)NC(=N)NCCC[C@H](NC(=O)[C@H](CCCCN)NC(=O)[C@H](CCCNC(=N)N)NC(=O)[C@H](CC(C)C)NC(=O)[C@H](CCCCN)NC(=O)[C@H](CCCNC(=N)N)NC(=O)[C@H](CC(C)C)NC(=O)C(C)(C)NC(=O)[C@H](CO)NC(=O)[C@H](C)NC(=O)[C@H](CC(C)C)NC(=O)[C@H](CCCNC(=N)N)NC(=O)[C@@H](NC(=O)[C@H](CCCNC(=N)N)NC(=O)[C@H](CC(C)C)NC(C)=O)C(C)C)C(=O)N[C@@H](CC(C)C)C(=O)N[C@@H](CC(C)C)C(N)=O [COG 345, acetyl-LRVRLAS-Aib-LRKLRK(acetyl-Arg)LL-amide] (Ac-LRVRLAS[Aib]LRKLRKR(Ac)LL-NH2) | – | most potent | – | clearly superior to that of COG 133 | significantly inhibited superoxide release
